{"source": "patent US20260007624A1", "about": "“COMPOSITION FOR AMELIORATING OR TREATING CANCER CACHEXIA […] LACTATE AS ACTIVE INGREDIENT” (METIMEDI PHARMACEUTICALS CO., LTD., priority 2022, published 2026)", "key": {"Hif-1α": {"system": "Hif-1α", "assay": "Western blot of Hif-1α expression in cancer cells", "assay_type": "cell-based", "conditions": "for Hif-1α expression: hypoxia 1% O2, FIG. 4", "description": "Then, Hif-1α antibody was diluted in TBST and attached to the protein on the membrane, washed with TBST, and treated with secondary antibody, and the band results were confirmed using X-ray film or Gel doc equipment."}, "[1]": {"system": "colon cancer cell line HCT-116", "assay": "Cytotoxicity assay, colon cancer cells", "assay_type": "cell-based", "conditions": "HCT-116, 48 hours, FIG. 2 lower panel", "description": "5×10^3 of normal colon fibroblast cell line CCD-18Co or colon cancer cell line HCT-116 were cultured in a 96-well plate at 37° C., 5% CO2. Incubator and observed under a microscope after 48 hours."}, "[2]": {"system": "metastatic colorectal cancer refractory to standard therapy", "assay": "Phase II clinical trial of calcium lactate (cachexia, tumor response, survival, safety)", "assay_type": "in vivo, patients", "parameters": "key to Overall tumor response: SD means that tumor growth has stopped; PD means that the tumor has increased by 20% or more", "description": "The clinical study was a phase II clinical trial targeting patients with metastatic colorectal cancer refractory to standard therapy.\nTwenty-two patients were enrolled, and 16 completed the trial (see Table 1).\nThe administration method was subcutaneous injection, and the administration dose was 100 mg/day. One cycle consisted of 4 weeks of treatment with 5 days of I.P. administration subcutaneously once daily followed by 2 days of rest.\nTumor assessment was performed every 2 cycles compared to baseline.\nThe clinical outcomes were the primary outcome of disease control rate, and the secondary outcomes were overall survival, progression-free survival, and safety. Body weight was measured 1 month after the start of administration and expressed as the increase or decrease in body weight before and after administration. Tumor response was performed with a CT scan 2 months after the start of administration and expressed as the increase or decrease in tumor size before and after administration. SD means that tumor growth has stopped, and PD means that the tumor has increased by 20% or more.\nBMI and Weight TO were measured at the screening visit, and Weight T1mo and SLD changes in the target lesion were measured 1 and 2 months after IP administration, respectively. SLD is an abbreviation for sum of longest diameters. SD and PD are abbreviations for stable disease and progressive disease, respectively."}, "[3]": {"assay": "Tissue pharmacokinetics (lactate concentration in muscle and tumor tissue)", "assay_type": "in vivo, Balb/c nude mice", "conditions": "HCT-116 tumor mice, 20 mg/kg S.C.", "description": "Balb/c nude mice were obtained and 1×10^6 HCT-116 was implanted subcutaneously to grow tumors. […] Each obtained tissue was analyzed for changes in lactate concentration over time using a lactate analysis kit."}, "[4]": {"conditions": "8 patients with weight loss including cachexia"}, "[5]": {"conditions": "of 16 patients who completed the trial"}}, "note": "Values joined by “and” are separate entries in the source; they are usually repeats but may differ in a detail not shown here. Equal entries are not always repeated."}
{"compound": "CC(O)C(=O)[O-].CC(O)C(=O)[O-].[Ca+2]", "note": "(stereo not drawn) [calcium lactate]", "values": [{"measurement": "Hif-1α expression", "setting": "Hif-1α; AsPC-1 (pancreatic cancer)", "result": "reduced"}, {"measurement": "Hif-1α expression", "setting": "Hif-1α; H1975 (lung cancer)", "result": "reduced"}, {"measurement": "Hif-1α expression", "setting": "Hif-1α; HCT-116 (colon cancer)", "result": "reduced"}, {"measurement": "Hif-1α expression", "setting": "Hif-1α; MDA-MB-231 (breast cancer)", "result": "reduced"}, {"measurement": "expression of Hif-1α protein", "setting": "Hif-1α; colon cancer cells, hypoxia, FIG. 3 upper panel", "result": "reduced"}, {"measurement": "effect on survival in colorectal cancer cells", "setting": "[1]", "result": "cancer cell death can be observed"}, {"measurement": "efficacy of preventing patients from cachexia", "setting": "[2]; 2 out of 16 patients progressed to cancerous cachexia", "result": 87.5, "unit": "%"}, {"measurement": "median overall survival", "setting": "[2]; 8 patients with maintained or increased weight", "result": 8, "unit": "months"}, {"measurement": "median increase in tumor size", "setting": "[2]; [4]", "result": 17, "unit": "%"}, {"measurement": "median overall survival", "setting": "[2]; [4]", "result": 4.15, "unit": "months"}, {"measurement": "median increase in tumor size", "setting": "[2]; 8 patients with weight maintenance or increase", "result": 9.5, "unit": "%"}, {"measurement": "disease control rate", "setting": "[2]; 16 patients", "result": 68.75, "unit": "%"}, {"measurement": "drug efficacy for tumor growth arrest", "setting": "[2]; 16 patients, metastatic stage", "result": 68.8, "unit": "%"}, {"measurement": "Overall survival", "setting": "[2]; individual patient", "result": "2.4 months and 4.4 months and 6 months and 14.9 months and 7.6 months and 2.7 months and 3.6 months and 7.9 months and 23 months and 8.1 months and 5.1 months and 6.3 months and 16.7 months and 25.8 months"}, {"measurement": "SLD change at target lesions", "setting": "[2]; individual patient, CT scan 2 months after start, RECIST 1.1", "result": "12.5% and 10.8% and 15.7% and 12.6% and 9.1% and 34.7% and 17.7% and 29.0% and −2.9% and 129.2% and 3.3% and 15.6% and 10.0% and 18.4% and 2.2% and 6.2%"}, {"measurement": "Overall tumor response", "setting": "[2]; individual patient, RECIST 1.1", "result": "SD (11×) and PD (PD means that the tumor has increased by 20% or more) (5×)"}, {"measurement": "Weight change", "setting": "[2]; individual patient, screening to 1 month of treatment, 100 mg/day subcutaneous", "result": "1.4% (3×) and −4.6% and 1.1% and 6.0% and −1.3% and −3.6% and 0.0% and −6.7% and −3.4% and 3.4% and −4.9% and 10.6% and −0.8%"}, {"measurement": "Cachexia, % of patients", "setting": "[2]; [5]", "result": 12.5, "unit": "%"}, {"measurement": "Cachexia, number of patients", "setting": "[2]; [5]", "result": 2}, {"measurement": "Weight gain (maintained or increased weight), number of patients", "setting": "[2]; [5]", "result": 8}, {"measurement": "Weight gain, % of patients", "setting": "[2]; [5]", "result": 50.0, "unit": "%"}, {"measurement": "Weight loss (not corresponding to cachexia), number of patients", "setting": "[2]; [5]", "result": 6}, {"measurement": "Weight loss, % of patients", "setting": "[2]; [5]", "result": 37.5, "unit": "%"}, {"measurement": "number of patients with stable disease", "setting": "[2]; out of 16 patients", "result": 11}, {"measurement": "DLT (dose limiting toxicity)", "setting": "[2]; phase 2 clinical trials", "result": "Non-DLT"}, {"measurement": "concentration of lactate in muscle tissue", "setting": "[3]", "result": "no change"}, {"measurement": "concentration of lactate in tumor tissues", "setting": "[3]; 2 hours after administration", "result": "increases"}]}
